Data set [1] in a line: In vivo biliary excretion and biliary clearance in rats (literature data, Equations 1 and 2). The note with it: rat. On the procedure:
In vivo biliary clearance, ClB (ml/min/kg body weight), was calculated according to Equation 1:
[formula] where Amountbile(O-T) represents the amount of parent drug recovered in bile from 0 to time T when most drug was eliminated from the systemic circulation, and AUCO-T represents the area under the plasma concentration-time curve from 0 to time T (in minutes).
The in vivo intrinsic biliary clearance (ClBin, ml/min/kg body weight) was estimated according to Equation 2 based on the well-stirred model of hepatic disposition assuming biliary excretion is the predominant elimination pathway (Pang et al., J. Pharmacokinet. Biopharm. 5:625-653, 1977).
[formula] where Q represents rat hepatic plasma/blood flow, 40-70 ml/min/kg of body weight {(blood flow×(1-hematocrit)}; Pollack et al., J. Pharmacol. Exp. Ther. 18:197-202, (1989), and ClB represents biliary clearance for model compounds reported in the literature or calculated from Equation 1.
The five model substrates representing a diverse spectrum of biliary excretion properties were selected to examine the relationship between the percentage of the dose excreted in bile in vivo in rats and the Biliary Excretion Index in sandwich-cultured hepatocytes. Information regarding the percentage of the dose excreted in rat bile after i.v. administration was obtained from the literature.

For data set [2], the system named is sandwich-cultured hepatocytes. The experiment in a line: Cumulative uptake, Biliary Excretion Index and in vitro biliary clearance in 96-hr sandwich-cultured hepatocytes. Format: in vitro ADME, rat. The note with it: for cumulative uptake in standard buffer compared to Ca2+-free buffer: 96-hr cultured hepatocytes; for Biliary Excretion Index: Equation 3. As to the method:
To prepare sandwich-cultured hepatocytes, neutralized collagen solution (0.1 ml, about 1.5 to about 3.0 mg/ml, pH 7.4) was added to the monolayers 24 hr after the cells were seeded. […] Medium was changed on a daily basis until the fourth day after the cells were seeded. These hepatocytes were referred to as 96-hr or long-term cultured hepatocytes.
(§1) Hepatocytes cultured in a collagen-sandwich configuration were incubated in 3 ml standard buffer or Ca^2+-free buffer at 37° C. for 10 min. After removing the incubation buffer, uptake was initiated by addition of 3 ml standard buffer containing substrate to each dish. After incubation for designated times, cumulative uptake was terminated by aspirating the incubation solution and rinsing 4 times with 3 ml ice-cold standard buffer to remove extracellular substrate. After washing, 2 ml of 1% Triton X-100 solution was added to culture dishes, and the cells were lysed by shaking the dish on a shaker for 20 min at room temperature. An aliquot (1 ml) of lysate was analyzed by liquid scintillation spectrometry. Bio-Rad DC Protein Assay Kit (Bio-Rad Laboratories, Hercules, Calif.) was used to determine the protein concentration in the culture extracts using bovine serum albumin as standard. […] All values for substrate uptake into cell monolayers were corrected for nonspecific binding to the collagen by subtracting the substrate uptake determined in the appropriate control dishes in the absence of cells as described previously.
(§2) Uptake data were normalized to the protein content and expressed as mean±SD from 3-4 separate preparations of hepatocytes. Statistical differences between mean values for the 10-min cumulative substrate uptake in the presence and absence of Ca^2+ were determined by the use of the well-known Student's t-test. A P value of <0.05 was considered significant.
Biliary excretion of substrates in the monolayers was quantitatively assessed by the Biliary Excretion Index based on Equation 3:
[formula] where Uptakestandard and Uptake Ca^2+-free represent the cumulative uptake of substrate over a 10-min interval in the hepatocyte monolayers pre-incubated in standard buffer and in Ca^2+-free buffer, respectively.
Biliary clearance in the sandwich-cultured hepatocytes, ClB(culture) (ml/min/kg per body weight), was calculated according to Equation 4:
[formula] where Timeincubation was 10 min and Concentrationmedium represented the initial substrate concentration in the incubation medium. In some embodiments, a biliary clearance value can be calculated as the ratio of the mass in the bile canaliculi and the area under the curve (AUC) in culture medium, wherein the AUC represents the integral of candidate compound (e.g. xenobiotic concentration) in the medium from time 0 to time T (time can be measure in any desired units, and is usually measured in minutes). Indeed, the term AUC can refer to the following equation: […]

The test system of data set [3] is short-term cultured hepatocytes. Kind of data set: Cumulative uptake in 3-hr (short-term) cultured hepatocyte monolayers, standard vs Ca2+-free buffer. Format: in vitro ADME, rat. The note with it: for cumulative uptake in standard buffer compared to Ca2+-free buffer: 3-hr cultured hepatocytes. As to the method: Hepatocytes were isolated with a two-step perfusion method. Briefly, rats were anesthetized with ketamine and xylazine (60 and 12mg/kg i.p., respectively) prior to portal vein cannulation. The liver was perfused in situ with oxygenated Ca^2+-free Krebs-Henseleit bicarbonate buffer containing collagenase type 1 (0.5 mg/ml) for 10 min. The hepatic capsule was removed with forceps. The hepatocytes were released by shaking the liver gently in 100 ml DMEM.
The released cells were filtered through a sterile nylon mesh (70-μm). The hepatocyte suspensions were centrifuged at 50 xg for 3 min. The cell pellet was resuspended in 25 ml DMEM and an equal volume of 90% isotonic polyvinylpyrrolidone-coated silica colloid centrifugation medium (pH 7.4) sold under the registered trademark PERCOLL® by Pharmacia, Inc. of Piscataway, N.J. The resulting cell suspension was centrifuged at about 70 to about 150 xg for 5 min. The pellet was resuspended in 50 ml DMEM and the cell suspensions were combined into one tube followed by centrifugation at 50 xg for 3 min. Hepatocyte viability was determined by trypan blue exclusion. Only those hepatocyte preparations with viability greater than 90% were utilized for further studies.
Hepatocyte suspensions were prepared with DMEM containing 5% fetal calf serum, 1 μM dexamethasone and 4 mg/L insulin. Hepatocyte suspensions were added to the precoated dishes at a density of about 2-3×10^6 cells/60-mm dish. Approximately 1 hr after plating the cells, the medium was aspirated and 3-ml fresh DMEM was added. For transport studies, hepatocytes that had been seeded for 3-5 hr without collagen overlay were defined as 3-hr or short-term cultured hepatocytes.
as §1, §2

The conditions of data set [4]: cited from earlier work; for percentage of the dose excreted in rat bile: i.v. administration, in 1 hr, unchanged drug; for in vivo biliary clearance: rat, literature values.
The test system of data set [5] is radixin. Kind of data set: Immunoblot analysis of radixin expression in siRNA-treated SCRH. It counts as cell-based, rat. On the procedure:
(§3) HepG2 cells were maintained in Dulbecco's modified Eagle's medium/F-12 plus 10% FBS. Rat hepatocytes were isolated from male Wistar rats (220-300g) by in situ collagenase perfusion (Annaert et al., Drug Metab Dispos 29:1277-1283, 2001). Cells were seeded at a density of 1.5×10^6 cells per well onto polystyrene 6-well plates pre-coated with rat tail type I collagen; a top layer of gelled collagen was overlaid 24 hr after plating. Rat hepatocyte cultures were maintained in Dulbecco's modified Eagle's medium supplemented with 0.1 μM dexamethasone and 0.1% ITS culture supplement (6.25 mg/mL insulin, 6.25 mg/mL transferrin, 6.25 μg/mL selenous acid, 5.35 mg/mL linoleic acid, and […]). Medium was changed every 24 hr.
HepG2 cells were seeded at a density of 2×10^5 cells per well onto 12-well plates 24 hr before transfection. A mixture of 100 ng firefly luciferase expression plasmid (PGL3-FL) and 100 ng Renilla luciferase expression plasmid (PRL-TK) and various amounts of firefly luciferase siRNA were used per well. Transfections of SCRH were performed at 20 hr after plating, unless specifically indicated. siRNA (2 μg unless specified) was used per well in 6-well plates. siRNA and DNA were formulated for transfection using […]™ transfection reaction kit (QIAGEN Inc. Valencia, Calif. USA). Briefly, siRNA was condensed in Enhancer EC at a ratio of 1:2 (μg of total RNA and/or DNA : μl of Enhancer), and formulated with TransMessenger at a ratio of 1:4 (μg of RNA and /or DNA: μl of TransMessenger) and then incubated with cells. For transfections of HepG2 cells, medium was changed after an overnight incubation with siRNA. […]
Cells were harvested 48 hr post transfection and lysed in 1% SDS, 1 mM EDTA plus COMPLETE™ protease inhibitor cocktail (Roche Diagnostics, Mannheim, Germany). The protein concentration of the clear cell lysate was determined with the BCA Protein Assay Reagent Kit (Pierce Biotech, Inc. Rockford, Ill.). […]

Data set [6] relates to Mrp2. The experiment in a line: Immunoblot analysis of Mrp2 expression in siRNA-treated SCRH. To be noted: 2 μg siRNA per well, 48 hr; for reduction in endogenous Mrp2 expression: vs siFL or non-transfected SCRH, average. Format: cell-based, rat. On the procedure: as §3
(§4) HepG2 cells were seeded at a density of 2×10^5 cells per well onto 12-well plates 24 hr before transfection. A mixture of 100 ng firefly luciferase expression plasmid (PGL3-FL) and 100 ng Renilla luciferase expression plasmid (PRL-TK) and various amounts of firefly luciferase siRNA were used per well. Transfections of SCRH were performed at 20 hr after plating, unless specifically indicated. siRNA (2 μg unless specified) was used per well in 6-well plates. siRNA and DNA were formulated for transfection using […]™ transfection reaction kit (QIAGEN Inc. Valencia, Calif. USA). Briefly, siRNA was condensed in Enhancer EC at a ratio of 1:2 (μg of total RNA and/or DNA : μl of Enhancer), and formulated with TransMessenger at a ratio of 1:4 (μg of RNA and /or DNA: μl of TransMessenger) and then incubated with cells. For transfections of HepG2 cells, medium was changed after an overnight incubation with siRNA. For transfections of SCRH, cells were incubated with siRNA for 4 hr and then were overlaid with collagen. siRNA delivery into hepatocytes was more efficient before overlay of the top collagen layer. The effect of transfection was examined 48 hr later.
(§5) Cells were harvested 48 hr post transfection and lysed in 1% SDS, 1 mM EDTA plus COMPLETE™ protease inhibitor cocktail (Roche Diagnostics, Mannheim, Germany). The protein concentration of the clear cell lysate was determined with the BCA Protein Assay Reagent Kit (Pierce Biotech, Inc. Rockford, Ill.). […] of total protein per lane was resolved by electrophoresis on NuPAGE 4-12% Bis-Tris Gel (Invitrogen Life Technology, Carlsbad, Calif. USA) and were transferred onto polyvinylidone difluoride membranes. The following antibodies were used to probe the membranes: anti-Mrp2 (M2111-6, Alexis Biochemicals, San Diego, Calif. USA); anti-Mrp3 (kind gift from Dr. Yuichi Sugiyama); anti-Radixin (Chemicon International, Inc. Temecula, Calif. USA), anti-β-actin (MAB1501, Chemicon).

The subject of data set [7] is Mrp3. The experiment in a line: Immunoblot analysis of Mrp3 expression in siRNA-treated SCRH. It counts as cell-based, rat. To be noted: immunoblot. On the procedure:
as §3, §4, §5

The mark [8] stands for this setting: 96-hr sandwich-cultured hepatocytes, 10-min cumulative uptake.

Entries after “also recorded” stand apart in the source; their conditions may differ. Read-outs that look alike come from different tables or passages of the source.

Regarding `CC1(C)SSC(C)(C)[C@@H](NC(=O)[C@@H](N)Cc2ccc(O)cc2)C(=O)NCC(=O)N[C@@H](Cc2ccccc2)C(=O)N[C@H]1C(=O)O` [[D-pen^2,5]enkephalin], the clearance in data set [1] (in vivo biliary clearance, calculated by Equation 1 from data of Chen and Pollack) is 18.5 mL/min/kg; in data set [1] (in vivo intrinsic biliary clearance, calculated from Equation 2 (well-stirred model)), approximately 34.4 mL/min/kg. In addition, the “cumulative uptake in standard buffer compared to Ca2+-free buffer” value in data set [2] is “significantly higher”; in data set [3] it was “not significantly different”.

On to `CN(Cc1cnc2nc(N)nc(N)c2n1)c1ccc(C(=O)N[C@@H](CCC(=O)O)C(=O)O)cc1` [methotrexate], for which the clearance in data set [1] (in vivo intrinsic biliary clearance) was approximately 17.3 mL/min/kg. Moreover, the “cumulative uptake in standard buffer compared to Ca2+-free buffer” value in data set [2] is listed as “significantly higher”; in data set [3] it was “not significantly different”. Moreover, the “in vitro biliary clearance” value in data set [2] (96-hr sandwich-cultured hepatocytes, 10-min cumulative uptake, Equation 4) came out at 4.1 ± 1.0 mL/min/kg. Further, the “percentage of the dose excreted in rat bile” value (“percentage” for short) is given as 50-60% in data set [4] and “approximately 60%” in data set [4] (listed as Methotrexate). In data set [4], the “in vivo biliary clearance” value is 12.1 ml/min per kg body weight.

In the case of `O=C(O)c1ccccc1O` [salicylate], in data set [2], the “cumulative uptake in standard buffer compared to Ca2+-free buffer” value is recorded as “no effect”. The “Biliary Excretion Index” value in data set [2] (setting [8]) is on record as “approximately zero; also recorded: negligible”. Moreover, in data set [4], the “percentage” value is “negligible” and the “in vivo biliary clearance” value was approximately 0 ml/min per kg body weight. In data set [3], the “cumulative uptake in standard buffer compared to Ca2+-free buffer” value was “not significantly different”.

Consider inulin, for which the “Biliary Excretion Index” value in data set [2] (setting [8]) was “approximately zero; also recorded: negligible”. Moreover, the “cumulative uptake (of initial added substrate)” value in data set [2] (long-term cultured hepatocytes, all incubation times, 1 μM) is “less than 0.01%”; in data set [3] (short-term cultured hepatocytes, all incubation times, 1 μM), “less than 0.01%”. The “percentage” value in data set [4] is recorded as “negligible”.

As for “siMrp2AB1: siRNA targeting rat Mrp2, GGCUAUAUCUGUGCAAUCCUA (SEQ ID NO: 3), nucleotides 1158-1178 of Mrp2 cDNA (listed as RNA, chemistry not given here)”, the radixin expression level in data set [5] amounted to 95±17 % non-transfected control. Besides, in data set [6], the “maximum reduction in endogenous Mrp2 expression” value amounted to 79% and the “reduction in endogenous Mrp2 expression” value stood at 50%. In data set [7], the “expression level of Mrp3” value was determined as 89±11 % non-transfected control.

As for “siMrp2AB2: siRNA targeting rat Mrp2, GGCUAGGAAGCAGUACACCAU (SEQ ID NO: 4) (listed as RNA, chemistry not given here)”, the radixin expression level in data set [5] is 100±8 % non-transfected control. Besides, the “reduction in endogenous Mrp2 expression” value in data set [6] was determined as 40±20%. Besides, in data set [7], the “expression level of Mrp3” value was found to be 96±15 % non-transfected control.

Compound “siMrp2AB3: siRNA targeting rat Mrp2, GGCAGUAGGGUGGUGGUCCAU (SEQ ID NO: 5) (listed as RNA, chemistry not given here)” showed a radixin expression level in data set [5] of 103±7 % non-transfected control. Moreover, the “reduction in endogenous Mrp2 expression” value in data set [6] was 26±18%. Further, in data set [7], the “expression level of Mrp3” value stood at 86±11 % non-transfected control.

The record behind these values is patent publication US7601494B2, “Method of screening candidate compounds for susceptibility to biliary excretion” (The University of North Carolina at Chapel Hill, priority 1999, dated 2009).
